In publication PMC5882637, “Ethanol potentiates the genotoxicity of the food-derived mammary carcinogen PhIP in human estrogen receptor-positive mammary cells: mechanistic support for lifestyle factors (cooked red meat and ethanol) associated with mammary cancer” (Archives of Toxicology, 2018):
One block for each molecule: values may come before it.

Legend:
MCF-7 cells [1] = experiment: Cytotoxicity (cell counting, TrypanBlue exclusion), MCF-7
Description: (§1) Cells were cultured routinely in 75-cm^2 flasks in a humidified incubator at 37 °C, 5% CO2.
(§2) Briefly, cells were seeded at a density of 5 × 10^4 cells per well in 24-well plate. Cells were treated with PhIP or ethanol as detailed previously. Following treatment with chemicals and harvesting (48 h), cells were trypsinised, the cell concentration adjusted to 2 × 10^5 and re-suspended in serum-free R0 (serum-free media) with 2% pluronic acid medium (GIBCO, Life technologies) and cytotoxicity was determined by counting cells in a haemocytometer with TrypanBlue exclusion (GIBCO, Life technologies). For the MN assay, cells were spread on a microscope slide using a cytospin. Cells at a density of 2 × 10^4 cells per slide were fixed with 100% methanol and stained for 60 s with acridine orange (0.1 mg ml^−1 dissolved in PBS, Sigma-Aldrich). Frequency of MN was scored in 2000 cells per sample and three biological replicates were performed per treatment.

MDA-MB-231 cells [2] = experiment: Cytotoxicity (cell counting, TrypanBlue exclusion), MDA-MB-231
Description: as §1, §2

CYP1A2 mRNA expression [3] = experiment: RT-qPCR CYP1A2 mRNA, MCF-7; settings: Fig. 2a
Description: as §1
(§3) Following treatment, cells were lysed using TRIZOL reagent and chloroform (0.2 ml) was added in each sample and centrifuged 12,000xg (10 min 2–8 °C). The upper aqueous phase was transferred to a fresh tube and 5 µg of RNase-free glycogen (as carrier to aqueous phase) and 0.5 ml of isopropyl alcohol was added to precipitate RNA and incubated (37 °C, 10 min). Following incubation, lysates were centrifuged at 12,000xg (10 min 2–8 °C). The gel-like pellet was washed with ethanol and re-dissolved in RNase-free water with heating (55–60 °C). Extracted RNA was quantified by UV spectroscopy (UV–VIS Nano-spectrophotometer, Implen, Essex, UK) and purity was assessed from 260/280 nm and 260/230 nm ratios. Reverse transcription (RT) of extracted RNA (100–500 ng) was completed according to manufacturer’s protocol (Invitrogen) and qPCR was performed using predesigned Taqman gene expression assays and FAST PCR master mix (Taqman, Applied Biosystems, Life technologies) using a StepOnePlus fast real-time PCR system (Applied Biosystems, Life technologies). Target gene expression was normalized to GAPDH and quantified using the delta-Ct method (Livak and Schmittgen [2001]).

CYP1B1 mRNA expression [4] = experiment: RT-qPCR CYP1B1 mRNA, MCF-7; settings: MCF-7
Description: as §1, §3

CYP1A2 mRNA expression [5] = experiment: RT-qPCR CYP1A2 mRNA, MDA-MB-231; settings: Fig. 2c
Description: as §1, §3

MCF-7 cells [6] = experiment: Micronucleus (MN) assay, MCF-7
Description: as §1, §2

STAT3 mRNA expression = experiment: qPCR STAT3 mRNA, MCF-7; type: cell-based, human; settings: co-treatment with PhIP, Fig. 4b
Description: as §1, §3

CYP2E1 mRNA expression = experiment: RT-qPCR CYP2E1 mRNA, MCF-7; settings: ICI 182,780 1 µM, Fig. 4c
Description: as §1
For STAT3 inhibition, cells were co-treated for 24 h with PhIP and 25 µM STAT3 inhibitor (STAT3 inhibitor VIII 5, 15 diphenylporphyrin, Millipore, Feltham, UK). STAT3 inhibitor was dissolved in DMSO. For ethanol treatment, media was supplemented with different concentrations of ethanol (10 mM-100 mM, Sigma-Aldrich) and was added to the cells. In some experiments, N-acetyl-cysteine (NAC) (10 mM, Sigma-Aldrich) diluted in phosphate-buffered saline (PBS) was added to incubations.
as §3

CYP1B1 mRNA expression [7] = experiment: RT-qPCR CYP1B1 mRNA, MDA-MB-231; settings: 24 h
Description: as §1, §3

MDA-MB-231 cells [8] = experiment: Micronucleus (MN) assay, MDA-MB-231
Description: as §1, §2

[9] = etoposide positive control (1.25 µM)

SMILES: C[C@]12CC[C@@H]3c4ccc(O)cc4CC[C@H]3[C@@H]1CC[C@@H]2O [E2, Estradiol]
change in cell survival following treatment (MCF-7 cells [1]; Fig. 1a): No significant change | change in cell survival following treatment (MDA-MB-231 cells [2]; Fig. 1b): No significant change | CYP1A2 mRNA expression vs vehicle control (CYP1A2 mRNA expression [3]; 24 h, E2 1 µM): No significant change | CYP1B1 mRNA expression vs vehicle control (CYP1B1 mRNA expression [4]; 24 h, E2 1 µM, Fig. 2b): upregulated | CYP1A2 mRNA expression vs vehicle control (CYP1A2 mRNA expression [5]; 24 h, E2 1 µM): No significant change

SMILES: COc1cc([C@@H]2c3cc4c(cc3[C@@H](O[C@@H]3O[C@@H]5CO[C@@H](C)O[C@H]5[C@H](O)[C@H]3O)[C@H]3COC(=O)[C@H]23)OCO4)cc(OC)c1O [Etoposide, reference compound]
Cytotoxicity (percent survival ± SD) (MCF-7 cells [1]; [9]): 81.7% ±1.4 | Cytotoxicity (percent survival ± SD) (MDA-MB-231 cells [2]; [9]): 83.7% ± 2.3

effect of ICI on PhIP upregulation of CYP1A2 mRNA (CYP1A2 mRNA expression [3]): unaffected | effect of concurrent ICI on PhIP-mediated induction of CYP1B1 (CYP1B1 mRNA expression [4]; 24 h, p = 0.05): significantly inhibited | effect of ICI co-treatment on E2-upregulated CYP1B1 expression (CYP1B1 mRNA expression [4]; E2 1 µM, Fig. 2b): attenuated significantly | effect of ICI on CYP2E1 expression (PhIP co-treatment) (CYP2E1 mRNA expression): significantly blocked | effect of ICI on PhIP upregulation of CYP1A2 mRNA (CYP1A2 mRNA expression [5]): unaffected | effect of concurrent ICI on PhIP-mediated induction of CYP1B1 (CYP1B1 mRNA expression [7]): in MCF-7 cells only
SMILES: C[C@]12CC[C@@H]3c4ccc(O)cc4C[C@@H](CCCCCCCCC[S+]([O-])CCCC(F)(F)C(F)(F)F)[C@H]3[C@@H]1CC[C@@H]2O (stereo partly shown) [ICI, Fulvestrant, reference compound]
effect of ICI co-incubation on MN induction by etoposide (MCF-7 cells [6]; Fig. 1): not affected | effect of ICI on E2-mediated genotoxicity (MCF-7 cells [6]; Fig. 1): attenuated | effect of ICI co-treatment on PhIP MN formation (MCF-7 cells [6]; p < 0.001, Fig. 1c): significantly attenuated | effect of ICI on PhIP-mediated STAT3 increase (STAT3 mRNA expression): inhibited | effect of ICI co-incubation on MN induction by etoposide (MDA-MB-231 cells [8]; Fig. 1): not affected | effect of ER antagonist (ICI) on DNA damaging ability of PhIP (MDA-MB-231 cells [8]; Fig. 1d): no change
